The target in one assay is T1, Rat Hepatic V1 Receptors (Rattus norvegicus, UniProt P30560).
T1 construct: Rat liver plasma membranes expressing the vasopressin V1 receptor subtypes; from tissue; host or cells: rat liver plasma membranes
In words: Binding Assay to Rat Hepatic V1 Receptors. On the procedure: Binding Assay to Rat Hepatic V1 Receptors
Rat liver plasma membranes expressing the vasopressin V1 receptor subtypes are isolated by sucrose density gradient according to the method described by Lesko et al., (1973). These membranes are quickly suspended in 50.0 mM Tris.HCl buffer, pH 7.4, containing 0.2% bovine serum albumin (BSA) and 0.1 mM phenylmethylsulfonylfluoride (PMSF) and kept frozen at -70° C. until used in subsequent binding experiments. For binding experiments, the following is added to the wells of a ninety-six well format microtiter plate: 100 μl of 100.0 mM Tris.HCl buffer containing 10.0 mM MgCl2, 0.2% heat inactivated BSA and a mixture of protease inhibitors: leupeptin, 1.0 mg %; aprotinin, 1.0 mg %; 1,10-phenanthroiine,2.0 mg %; trypsin inhibitor, 10.0 mg % and 0.1 mM PMSF, 20.0 μl of [phenylalanyl-3,4,5, -^3 H] vasopressin (S.A. 45.1 Ci/mmole) at 0.8 nM, and the reaction initiated by the addition of 80 μl of tissue membranes containing 20 μg of tissue protein. The plates are kept undisturbed on the bench top at room temperature for 120 min. to reach equilibrium. Non-specific samples are assayed in the presence of 0.1 μM of the unlabeled antagonist phenylalanylvasopressin, added in 20.0 μl volume.
(§1) For test compounds, these are solubilized in 50% dimethylsulfoxide (DMSO) and added in 20.0 μl volume to a final incubation volume of 200 μl . Upon completion of binding, the content of each well is filtered off, using a Brandel® cell Harvester (Gaithersburg, Md.). The radioactivity trapped on the filter disk by the ligand-receptor complex is assessed by liquid scintillation counting in a Packard LS Counter, with an efficiency of 65% for tritium. The data are analyzed for IC50 values by the LUNDON-2 program for competition (LUNDON SOFTWARE, Ohio).

Assay [1] addresses T2, Rat Kidney Medullary V2 Receptors (Rattus norvegicus, UniProt Q00788).
T2 construct: Medullary tissues from rat kidneys are dissected out; from tissue; host or cells: rat kidney medulla membranes
In words: Binding Assay to Rat Kidney Medullary V2 Receptors. The procedure: Binding Assay to Rat Kidney Medullary V2 Receptors
Medullary tissues from rat kidneys are dissected out, cut into small pieces and soaked in a […] sodium chloride solution containing 1.0 mM EDTA with many changes of the liquid phase, until the solution is clear of blood. The tissue is homogenized in a 0.25M sucrose solution containing 1.0 mM EDTA and 0.1 mM PMSF using a Potter-Elvehjem homogenizer with a teflon pestle. The homogenate is filtered through several layers (4 layers) of cheese cloth. The filtrate is rehomogenized using a dounce homogenizer, with a tight fitting pestle. The final homogenate is centrifuged at 1500× g for 15 min. The nuclear pellet is discarded and the supernatant fluid recentrifuged at 40,000× g for 30 min. The resulting pellet formed contains a dark inner part with the exterior., slightly pink. The pink outer part is suspended in a small amount of 50.0 mM Tris. HCl buffer, pH 7.4. The protein content is determined by the Lowry's method (Lowry et al., J. Biol. Chem., 1953). The membrane suspension is stored at -70° C. in 50.0 mM Tris HCl, containing 0.2% inactivated BSA and 0.1 mM PMSF in aliquots of 1.0 ml containing 10.0 mg protein per ml of suspension until use in subsequent binding experiments.
as §1, with “The plates are left undisturbed on the bench top for 120 min to reach equilibrium. Non-specific binding is assessed in the presence of 1.0 μM of unlabeled ligand, added in 20 μl volume. For” for “For”, “μl.” for “μl .”

A further assay has as its system Vasopressin V1. In words: Vasopressin V1 Antagonist Activity in Conscious Rats (vasopressin vasopressor response). It counts as in vivo, rat. The arrangement: Average Change: unit not given here. Particulars: 10 mg/kg i.v., SHR. The procedure: Vasopressin V1 Antagonist Activity in Conscious Rats
Conscious rats are restrained in a supine position with elastic tape. The area at the base of the tail is locally anesthetized by subcutaneous infiltration with 2% procaine (0.2 ml). Using aseptic technique the ventral caudal tail artery is isolated and a cannula made of PE 10 and 20 (heat-fused) tubing is passed into the lower abdominal aorta. The cannula is secured, heparinized (1000 i.u./cc), sealed and the wound closed with one or two stitches of Dexon 4-0. The caudal vein is also cannulated in the same manner for intravenous drug administration. The duration of the surgery is approximately 5 minutes. Additional local anesthesia (2% procaine or lidocaine) is provided as needed.
The animals are placed in plastic restraining cages in an upright position. The cannula is attached to a Statham P23Db pressure transducer and pulsatile blood pressure is recorded. […] The vasopressin injections are repeated 30,60,90,120,180,240 and 300 min. later. Percentage of antagonism by the compound is calculated using the pre-drug vasopressin vasopressor response as 100%.

[2] abbreviates: rat liver membranes, read-out: V1 IC50.
[3] abbreviates: rat kidney medulla membranes, read-out: V2 IC50.

Where two headings read alike, the source gives them in different places.

T1 sequence (P30560 whole entry): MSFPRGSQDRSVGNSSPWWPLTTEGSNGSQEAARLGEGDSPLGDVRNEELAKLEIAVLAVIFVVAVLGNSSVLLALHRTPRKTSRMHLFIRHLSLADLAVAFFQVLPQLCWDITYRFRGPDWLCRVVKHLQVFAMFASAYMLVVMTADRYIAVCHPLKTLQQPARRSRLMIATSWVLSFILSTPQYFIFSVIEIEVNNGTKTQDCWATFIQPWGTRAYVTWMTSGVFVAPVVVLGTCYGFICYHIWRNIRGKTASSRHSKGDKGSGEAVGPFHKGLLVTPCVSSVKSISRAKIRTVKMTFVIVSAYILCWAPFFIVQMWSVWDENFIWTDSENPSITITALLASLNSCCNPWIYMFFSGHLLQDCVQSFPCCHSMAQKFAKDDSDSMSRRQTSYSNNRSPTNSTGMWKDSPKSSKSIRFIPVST
T2 sequence (Q00788 whole entry): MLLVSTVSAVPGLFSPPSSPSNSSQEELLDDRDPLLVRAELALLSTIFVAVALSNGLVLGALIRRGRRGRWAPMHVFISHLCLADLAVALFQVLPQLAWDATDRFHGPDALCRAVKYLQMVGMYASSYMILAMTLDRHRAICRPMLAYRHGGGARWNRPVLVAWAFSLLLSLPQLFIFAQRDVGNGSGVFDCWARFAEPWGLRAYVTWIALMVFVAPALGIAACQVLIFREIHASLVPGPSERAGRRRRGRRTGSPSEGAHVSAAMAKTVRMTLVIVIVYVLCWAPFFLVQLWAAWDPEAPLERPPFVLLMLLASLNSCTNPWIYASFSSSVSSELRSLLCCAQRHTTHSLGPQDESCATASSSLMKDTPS

In general, IC50 refers to the concentration that gives 50% inhibition. `Cc1ccccc1C(=O)Nc1ccc(C(=O)N2Cc3cccn3C(=O)c3ccccc32)cc1` [Example 40, 2-Methyl-N-[4-[(5-oxo-5H-pyrrolo[2,1-c]-[1,4]benzodiazepin 10(11H)-yl)carbonyl]phenyl]benzamide]: the IC50 was 2400 nM at Rat Hepatic V1 Receptors (setting [2]) and 120 nM in assay [1] (setting [3]).
Broadly, the % Inhibition is the change of the read-out against control, counted positive when it falls. With `Cc1ccccc1C(=O)Nc1ccc(C(=O)N2Cc3ccc(Cl)n3Cc3ccccc32)cc1` [Example 41, N-[4-(3-Chloro-5H-pyrrolo[2,1c][1,4]benzodiazepine10(11H)ylcarbonyl)phenyl]-2-methylbenzamide], the results for the IC50 (at Rat Hepatic V1 Receptors (setting [2]); in assay [1] (setting [3])) were 37 nM and 17 nM, respectively. Besides, the “% Inhibition” value in the assay on Vasopressin V1 (VAS 0.01 i.u./kg, 30 min) is recorded as 45%; with Vasopressin V1 (VAS 0.01 i.u./kg, 60 min), 59%; in the assay with Vasopressin V1 (VAS 0.01 i.u./kg, 90 min), 36%; in the assay with Vasopressin V1 (VAS 0.01 i.u./kg, 120 min), 36%; in the assay on Vasopressin V1 (VAS 0.01 i.u./kg, 180 min), 39%; in the assay on Vasopressin V1 (VAS 0.01 i.u./kg, 240 min), 43%. Further, the “% Inhibition” value in the assay on Vasopressin V1 (VAS 0.01 i.u./kg, 300 min) came out at 32%; with Vasopressin V1 (VAS 0.02 i.u./kg, 30 min), 53%; in the assay on Vasopressin V1 (VAS 0.02 i.u./kg, 60 min) it was 64%; with Vasopressin V1 (VAS 0.02 i.u./kg, 90 min), 55%; with Vasopressin V1 (VAS 0.02 i.u./kg, 120 min), 67%; in the assay with Vasopressin V1 (VAS 0.02 i.u./kg, 180 min) it was 58%. Besides, the “% Inhibition” value with Vasopressin V1 (VAS 0.02 i.u./kg, 240 min) came out at 53%; in the assay on Vasopressin V1 (VAS 0.02 i.u./kg, 300 min), 47%. Further, the “Average Change” value in the assay on Vasopressin V1 (VAS 0.01 i.u./kg, 30 min) is 12; with Vasopressin V1 (VAS 0.01 i.u./kg, 60 min) it was 9; with Vasopressin V1 (VAS 0.01 i.u./kg, 90 min), 14; in the assay with Vasopressin V1 (VAS 0.01 i.u./kg, 120 min) it was 14; with Vasopressin V1 (VAS 0.01 i.u./kg, 180 min) it was 13.5; in the assay with Vasopressin V1 (VAS 0.01 i.u./kg, 240 min), 12.5. The “Average Change” value was determined as 15 in the assay on Vasopressin V1 (VAS 0.01 i.u./kg, 300 min); 23.5 in the assay on Vasopressin V1 (VAS 0.02 i.u./kg, 30 min); 18 in the assay with Vasopressin V1 (VAS 0.02 i.u./kg, 60 min); 22.5 in the assay on Vasopressin V1 (VAS 0.02 i.u./kg, 90 min); 16.5 in the assay on Vasopressin V1 (VAS 0.02 i.u./kg, 120 min); 21 in the assay with Vasopressin V1 (VAS 0.02 i.u./kg, 180 min). Also, the “Average Change” value in the assay on Vasopressin V1 (VAS 0.02 i.u./kg, 240 min) is 23.5; in the assay with Vasopressin V1 (VAS 0.02 i.u./kg, 300 min) it was 27.
For the molecule `Cc1ccc(C(=O)Nc2ccc(C(=O)N3Cc4cccn4Cc4ccccc43)cc2)s1` [Example 355, N-[4-(5H-Pyrrolo[2,1-c][1,4]benzodiazepin-10(11)ylcarbonyl)phenyl]-5-methyl-2-thiophenecarboxamide], the concentration for half-maximal inhibition (IC50) on Rat Hepatic V1 Receptors (setting [2]) stood at 165 nM; in assay [1] (setting [3]) it was 350 nM.
For the molecule `O=C(c1ccc(NP(=O)(Oc2ccccc2)Oc2ccccc2)cc1)N1Cc2cccn2Cc2ccccc21` [Example 492], the IC50 is 160 nM at Rat Hepatic V1 Receptors and 3200 nM in assay [1].
The inhibition is how much of the control response was suppressed. `O=C(c1ccc(NS(=O)(=O)c2cc(Cl)ccc2Cl)cc1)N1Cc2cccn2Cc2ccccc21` [Example 493, 10-[4-[[(2,5-Dichlorophenyl)sulfonyl]amino]benzoyl]-10,11-dihydro-5H-pyrrolo[2,1-c][1,4]benzodiazepine]: the IC50 on Rat Hepatic V1 Receptors (setting [2]) turned out to be 140 nM. Moreover, at 10 µM the inhibition in assay [1] (10 μM, rat) was 68%.
As to `O=C(c1ccc(NS(=O)(=O)Cc2ccccc2)cc1)N1Cc2cccn2Cc2ccccc21` [Example 494, 10-[4-[[(Phenylmethyl)sulfonyl]amino]benzoyl]-10,11-dihydro-5H-pyrrolo[2,1-c][1,4]benzodiazepine], the 50% inhibitory concentration (IC50) came to 110 nM on Rat Hepatic V1 Receptors (setting [2]) and 5800 nM in assay [1] (setting [3]).
As for `Cc1ccccc1C(=O)Nc1ccc(C(=O)N2Cc3ccc(CN(C)C)n3Cc3ccccc32)cc1` [Example 660], the 50% inhibitory concentration (IC50) on Rat Hepatic V1 Receptors (setting [2]) was 73 nM; in assay [1] (setting [3]), 64 nM.
On to `Cc1ccccc1C(=O)Nc1ccc(C(=O)N2Cc3ccc(CN4CCCCC4)n3Cc3ccccc32)cc1` [Example 661, N-[4-[[3-(1-piperidinylmethyl)-5H-pyrrolo[2,1-c][1,4]benzodiazepin-10(11H)-yl]carbonyl]phenyl]-2-methyl-benzamide], for which the IC50 (on Rat Hepatic V1 Receptors (setting [2]); in assay [1] (setting [3])) was 57 nM throughout.
Turning to `Cc1ccccc1C(=O)Nc1ccc(C(=O)N2Cc3ccc(CN4CCOCC4)n3Cc3ccccc32)cc1` [Example 662, N-[4-[[3-(4-morpholinomethyl)-5H-pyrrolo[2,1-c][1,4]benzodiazepin-10(11H)-yl]carbonyl]phenyl]-2-methyl-benzamide], the 50% inhibitory concentration (IC50) on Rat Hepatic V1 Receptors (setting [2]) came out at 40 nM; in assay [1] (setting [3]), 35 nM.
Taken in the same sequence, the figures for `Cc1ccccc1C(=O)Nc1ccc(C(=O)N2Cc3ccc(CN4CCN(Cc5ccccc5)CC4)n3Cc3ccccc32)cc1` [Example 663, N-[4-[[3-[[4-(phenylmethyl)-1-piperazinyl]methyl]-5H-pyrrolo[2,1-c][1,4]-benzodiazepin-10(11H)-yl]carbonyl]-phenyl]-2-methylbenzamide] were 9 nM and 25 nM.
In the case of `CC(=O)c1ccc2n1Cc1ccccc1N(C(=O)c1ccc(NC(=O)c3ccc(Cl)cc3Cl)cc1)C2` [Example 670, N-[4-[(3-Acetyl-5H-pyrrolo[2,1-c][1,4]benzodiazepin-10(11H)-yl]carbonyl]phenyl]-2,4-dichlorobenzamide], the IC50 was determined as 1100 nM on Rat Hepatic V1 Receptors (setting [2]) and 290 nM in assay [1] (setting [3]).
`O=C(Nc1ccc(C(=O)N2Cc3cccn3Cc3ccccc32)c(Cl)c1)c1cccc(C(F)(F)F)c1F` [Example 699, N-[4-(5H-pyrrolo[2,1-c][1,4]benzodiazepin-10(11H)-ylcarbonyl)-3-chloro-phenyl]-2-fluoro-3-(trifluoromethyl)benzamide]: the inhibition at 1 µM came to 19% at Rat Hepatic V1 Receptors (2 h, 1 μM, rat) and 100% in assay [1] (1 μM, rat).
